Test results from patent publication US20060009493A1, “Indolinone hydrazides as c-Met inhibitors” (Sugen, Inc., priority 2003, published 2006).

Biological target: T1, GST fusion protein containing the Met kinase domain (Homo sapiens, UniProt P08581)
T1 construct: Purified GST fusion protein containing the Met kinase domain, Sugen, Inc
Assay: MET Transphosphorylation Assay (ELISA, poly(Glu,Tyr) 4:1 substrate)
Assay type: biochemical
Conditions: met transphosphorylation of poly(glutamic acid:tyrosine 4:1) substrate; two values in a cell separated by '/'
Outline: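 Poly(Glu-Tyr)-coated wells received the GST-Met kinase domain (10 ng/well) with compound in DMSO for 15 minutes. The reaction was started with ATP/MnCl2 in HEPES pH 7.5 buffer with vanadate, run 5 minutes, and stopped with EDTA. Phosphotyrosine was detected by anti-pTyr antibody, HRP secondary and ABTS/H2O2.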

T1 sequence (P08581 1078-1345 limits assumed): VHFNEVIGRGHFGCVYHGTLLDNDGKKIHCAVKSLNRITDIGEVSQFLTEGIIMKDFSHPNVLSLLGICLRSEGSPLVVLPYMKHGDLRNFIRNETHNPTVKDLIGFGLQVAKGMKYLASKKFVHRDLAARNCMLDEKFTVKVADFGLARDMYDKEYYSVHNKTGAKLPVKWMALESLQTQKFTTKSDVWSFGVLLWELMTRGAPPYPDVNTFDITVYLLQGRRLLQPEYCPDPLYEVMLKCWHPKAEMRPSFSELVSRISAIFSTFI

IC50: 110 nM
SMILES: CC(C(=O)N/N=C1\C(=O)Nc2ccc(C(=O)NCCN3CCOCC3)c(Cl)c21)c1ccc(F)cc1 (stereo not shown) [Example I-39, (3Z)-4-Chloro-3-{[2-(4-fluoro-phenyl)-propionyl]-hydrazono}-2-oxo-2,3-dihydro-1H-indole-5-carboxylic acid (2-morpholin-4-yl-ethyl)-amide]
